In one test the test system is gephE. Kind of test: µSPOT peptide microarray binding assay with recombinant gephE. The conditions noted are these: µSPOT peptide microarray, GlyRβ full positional scan, recombinant gephE; intensity normalised to wild-type sequence DLRSNDFSIVGSLPR (=1).
The next test has as its system native geph. Kind of test: µSPOT peptide microarray binding assay with native geph from mouse brain lysate. The settings on record: µSPOT peptide microarray, GlyRβ full positional scan, native geph from mouse brain lysate; intensity normalised to wild-type sequence DLRSNDFSIVGSLPR (=1).
The next test deals with FL-geph. Kind of test: µSPOT peptide microarray binding assay with full-length geph. The settings on record: µSPOT peptide microarray, GlyRβ full positional scan, intensity normalised to wild-type sequence DLRSNDFSIVGSLPR (=1).

For the sequence “DLRSYDFSIVGSLPR [GlyRβ_Full_Positional_Scan_089]”, in the test on gephE, the “gephE Binding Intensity [norm.]” value is listed as 0.89 norm. The “Native geph Binding Intensity [norm.]” value in the test with native geph was 0.68 norm. Further, the “Fl-geph Binding Intensity [norm.]” value in the test with FL-geph came out at 0.76 norm.

Turning to “DLRTNDFSIVGSLPR [GlyRβ_Full_Positional_Scan_076]”, the “gephE Binding Intensity [norm.]” value in the test with gephE turned out to be 0.93 norm. Also, the “Native geph Binding Intensity [norm.]” value with native geph worked out at 1.12 norm. Also, in the test on FL-geph, the “Fl-geph Binding Intensity [norm.]” value is reported as 1.09 norm.

“DLRVNDFSIVGSLPR [GlyRβ_Full_Positional_Scan_066]”: in the test on gephE, the “gephE Binding Intensity [norm.]” value is 0.91 norm. The “Native geph Binding Intensity [norm.]” value with native geph is given as 0.98 norm. Further, in the test with FL-geph, the “Fl-geph Binding Intensity [norm.]” value was 0.9 norm.

As for “DLRWNDFSIVGSLPR [GlyRβ_Full_Positional_Scan_068]”, the “gephE Binding Intensity [norm.]” value in the test on gephE came out at 0.92 norm. For the same sequence, the “Native geph Binding Intensity [norm.]” value with native geph was 0.95 norm. The “Fl-geph Binding Intensity [norm.]” value in the test on FL-geph is 0.81 norm.

Take “DLRYNDFSIVGSLPR [GlyRβ_Full_Positional_Scan_069]”: in the test with gephE, the “gephE Binding Intensity [norm.]” value is recorded as 0.96 norm. Further, in the test on native geph, the “Native geph Binding Intensity [norm.]” value stood at 0.93 norm. In addition, the “Fl-geph Binding Intensity [norm.]” value with FL-geph is reported as 0.83 norm.

Turning to “DLSSNDFSIVGSLPR [GlyRβ_Full_Positional_Scan_055]”, the “gephE Binding Intensity [norm.]” value in the test with gephE is 0.87 norm. In addition, the “Native geph Binding Intensity [norm.]” value in the test on native geph came to 1.35 norm. Besides, the “Fl-geph Binding Intensity [norm.]” value with FL-geph was determined as 1.4 norm.

Turning to “DLTSNDFSIVGSLPR [GlyRβ_Full_Positional_Scan_056]”, the “gephE Binding Intensity [norm.]” value with gephE came out at 0.96 norm. The “Native geph Binding Intensity [norm.]” value in the test on native geph is listed as 1.38 norm. Further, in the test on FL-geph, the “Fl-geph Binding Intensity [norm.]” value turned out to be 1.18 norm.

With “DLVSNDFSIVGSLPR [GlyRβ_Full_Positional_Scan_046]”, the “gephE Binding Intensity [norm.]” value in the test with gephE was found to be 0.94 norm. The “Native geph Binding Intensity [norm.]” value in the test on native geph was 1.47 norm. In addition, in the test with FL-geph, the “Fl-geph Binding Intensity [norm.]” value was 1.27 norm.

As to “DLWSNDFSIVGSLPR [GlyRβ_Full_Positional_Scan_048]”, the “gephE Binding Intensity [norm.]” value in the test with gephE was found to be 0.86 norm. In addition, the “Native geph Binding Intensity [norm.]” value in the test with native geph is reported as 1.17 norm. The “Fl-geph Binding Intensity [norm.]” value with FL-geph is recorded as 1.13 norm.

On to “DLYSNDFSIVGSLPR [GlyRβ_Full_Positional_Scan_049]”, for which the “gephE Binding Intensity [norm.]” value in the test with gephE is given as 0.96 norm. For the same sequence, the “Native geph Binding Intensity [norm.]” value in the test on native geph stood at 1.37 norm. In the test with FL-geph, the “Fl-geph Binding Intensity [norm.]” value is given as 1.03 norm.

On to “DMRSNDFSIVGSLPR [GlyRβ_Full_Positional_Scan_038]”, for which, in the test on gephE, the “gephE Binding Intensity [norm.]” value turned out to be 0.97 norm. In addition, the “Native geph Binding Intensity [norm.]” value in the test on native geph amounted to 1.09 norm. Also, the “Fl-geph Binding Intensity [norm.]” value in the test with FL-geph was 0.97 norm.

Consider “DNRSNDFSIVGSLPR [GlyRβ_Full_Positional_Scan_039]”, for which, in the test with gephE, the “gephE Binding Intensity [norm.]” value turned out to be 0.96 norm. In addition, the “Native geph Binding Intensity [norm.]” value with native geph is reported as 1.18 norm. Also, the “Fl-geph Binding Intensity [norm.]” value in the test with FL-geph is reported as 0.98 norm.

In the case of “DPRSNDFSIVGSLPR [GlyRβ_Full_Positional_Scan_025]”, the “gephE Binding Intensity [norm.]” value in the test with gephE is 1.01 norm. Besides, the “Native geph Binding Intensity [norm.]” value in the test on native geph is recorded as 1.02 norm. Moreover, the “Fl-geph Binding Intensity [norm.]” value in the test on FL-geph is given as 1.01 norm.

Take “DQRSNDFSIVGSLPR [GlyRβ_Full_Positional_Scan_040]”: in the test with gephE, the “gephE Binding Intensity [norm.]” value came to 0.96 norm. Moreover, the “Native geph Binding Intensity [norm.]” value with native geph turned out to be 1.16 norm. For the same sequence, the “Fl-geph Binding Intensity [norm.]” value with FL-geph was 0.92 norm.

Regarding “DRRSNDFSIVGSLPR [GlyRβ_Full_Positional_Scan_032]”, in the test on gephE, the “gephE Binding Intensity [norm.]” value is 0.9 norm. In addition, the “Native geph Binding Intensity [norm.]” value with native geph was determined as 0.66 norm. Further, the “Fl-geph Binding Intensity [norm.]” value in the test on FL-geph was determined as 0.96 norm.

For “DSRSNDFSIVGSLPR [GlyRβ_Full_Positional_Scan_035]”, the “gephE Binding Intensity [norm.]” value in the test on gephE was 0.97 norm. For the same sequence, the “Native geph Binding Intensity [norm.]” value with native geph is 0.97 norm. In addition, the “Fl-geph Binding Intensity [norm.]” value with FL-geph is reported as 0.97 norm.

Consider “DTRSNDFSIVGSLPR [GlyRβ_Full_Positional_Scan_036]”, for which the “gephE Binding Intensity [norm.]” value with gephE stood at 0.94 norm. In the test on native geph, the “Native geph Binding Intensity [norm.]” value worked out at 1.09 norm. The “Fl-geph Binding Intensity [norm.]” value in the test with FL-geph is 0.97 norm.

Regarding “DVRSNDFSIVGSLPR [GlyRβ_Full_Positional_Scan_026]”, in the test on gephE, the “gephE Binding Intensity [norm.]” value was found to be 1.03 norm. The “Native geph Binding Intensity [norm.]” value in the test with native geph came out at 0.98 norm. The “Fl-geph Binding Intensity [norm.]” value with FL-geph came out at 1.05 norm.

Consider “DWRSNDFSIVGSLPR [GlyRβ_Full_Positional_Scan_028]”, for which, in the test on gephE, the “gephE Binding Intensity [norm.]” value was determined as 0.8 norm. For the same sequence, the “Native geph Binding Intensity [norm.]” value in the test with native geph worked out at 0.6 norm. Further, in the test on FL-geph, the “Fl-geph Binding Intensity [norm.]” value is 0.82 norm.

In the case of “DYRSNDFSIVGSLPR [GlyRβ_Full_Positional_Scan_029]”, in the test on gephE, the “gephE Binding Intensity [norm.]” value worked out at 0.95 norm. Also, the “Native geph Binding Intensity [norm.]” value with native geph came out at 0.73 norm. Besides, the “Fl-geph Binding Intensity [norm.]” value with FL-geph amounted to 0.84 norm.

“ELRSNDFSIVGSLPR [GlyRβ_Full_Positional_Scan_011]”: the “gephE Binding Intensity [norm.]” value in the test with gephE came to 1.1 norm. Also, in the test with native geph, the “Native geph Binding Intensity [norm.]” value came to 0.97 norm. Moreover, the “Fl-geph Binding Intensity [norm.]” value with FL-geph is 0.94 norm.

“FLRSNDFSIVGSLPR [GlyRβ_Full_Positional_Scan_007]”: in the test with gephE, the “gephE Binding Intensity [norm.]” value was 0.96 norm. The “Native geph Binding Intensity [norm.]” value with native geph amounted to 0.77 norm. For the same sequence, the “Fl-geph Binding Intensity [norm.]” value in the test with FL-geph was 1.03 norm.

In the case of “GLRSNDFSIVGSLPR [GlyRβ_Full_Positional_Scan_002]”, the “gephE Binding Intensity [norm.]” value in the test with gephE is 1.01 norm. Moreover, the “Native geph Binding Intensity [norm.]” value in the test with native geph is on record as 0.75 norm. The “Fl-geph Binding Intensity [norm.]” value with FL-geph is recorded as 1.03 norm.

Take “HLRSNDFSIVGSLPR [GlyRβ_Full_Positional_Scan_013]”: the “gephE Binding Intensity [norm.]” value in the test with gephE is on record as 1.1 norm. For the same sequence, the “Native geph Binding Intensity [norm.]” value with native geph was found to be 0.83 norm. For the same sequence, the “Fl-geph Binding Intensity [norm.]” value in the test on FL-geph is reported as 1 norm.

Take “ILRSNDFSIVGSLPR [GlyRβ_Full_Positional_Scan_003]”: the “gephE Binding Intensity [norm.]” value in the test on gephE was determined as 1.15 norm. For the same sequence, the “Native geph Binding Intensity [norm.]” value in the test with native geph amounted to 0.86 norm. Also, the “Fl-geph Binding Intensity [norm.]” value in the test on FL-geph is 1.09 norm.

As for “KLRSNDFSIVGSLPR [GlyRβ_Full_Positional_Scan_014]”, in the test on gephE, the “gephE Binding Intensity [norm.]” value came to 1.03 norm. Also, the “Native geph Binding Intensity [norm.]” value with native geph is 0.32 norm. Further, the “Fl-geph Binding Intensity [norm.]” value with FL-geph is given as 0.94 norm.

Take “LLRSNDFSIVGSLPR [GlyRβ_Full_Positional_Scan_004]”: the “gephE Binding Intensity [norm.]” value in the test with gephE amounted to 1.18 norm. Besides, the “Native geph Binding Intensity [norm.]” value with native geph is reported as 0.66 norm. Moreover, in the test with FL-geph, the “Fl-geph Binding Intensity [norm.]” value stood at 1.1 norm.

In the case of “MLRSNDFSIVGSLPR [GlyRβ_Full_Positional_Scan_018]”, the “gephE Binding Intensity [norm.]” value in the test on gephE was determined as 1.13 norm. The “Native geph Binding Intensity [norm.]” value in the test with native geph is recorded as 1.2 norm. Moreover, the “Fl-geph Binding Intensity [norm.]” value in the test on FL-geph turned out to be 1.04 norm.

In the case of “NLRSNDFSIVGSLPR [GlyRβ_Full_Positional_Scan_019]”, the “gephE Binding Intensity [norm.]” value in the test on gephE stood at 1.15 norm. Besides, in the test with native geph, the “Native geph Binding Intensity [norm.]” value is 1.28 norm. Further, the “Fl-geph Binding Intensity [norm.]” value in the test on FL-geph was determined as 1 norm.

Regarding “PLRSNDFSIVGSLPR [GlyRβ_Full_Positional_Scan_005]”, the “gephE Binding Intensity [norm.]” value in the test with gephE is on record as 1.1 norm. The “Native geph Binding Intensity [norm.]” value in the test with native geph amounted to 0.72 norm. In the test on FL-geph, the “Fl-geph Binding Intensity [norm.]” value amounted to 1.16 norm.

The values above are taken from paper PMC7753147, “High-throughput determination of protein affinities using unmodified peptide libraries in nanomolar scale” (iScience, 2020).
